Measurements reported in ChEMBL document CHEMBL3600352, “Design, synthesis and biological evaluation of isoquinoline-based derivatives as novel histone deacetylase inhibitors” (Bioorg Med Chem, 2015).

Key:
Histone deacetylase 1 = Histone deacetylase 1 (Homo sapiens, UniProt Q13547); assay: Inhibition of recombinant His6-tagged GST-fused human HDAC1 expressed in baculovirus infected insect High5 cells using Ac-Lys-Tyr-Lys(epsilon-acetyl)-AMC as substrate after 24 hrs
Histone deacetylase 3 = Histone deacetylase 3 (Homo sapiens, UniProt O15379); assay: Inhibition of recombinant His6-tagged GST-fused human HDAC3 expressed in baculovirus infected insect High5 cells using Ac-Lys-Tyr-Lys(epsilon-acetyl)-AMC as substrate after 24 hrs
Histone deacetylase 3, sequence (O15379 whole entry, the tested form may be a part): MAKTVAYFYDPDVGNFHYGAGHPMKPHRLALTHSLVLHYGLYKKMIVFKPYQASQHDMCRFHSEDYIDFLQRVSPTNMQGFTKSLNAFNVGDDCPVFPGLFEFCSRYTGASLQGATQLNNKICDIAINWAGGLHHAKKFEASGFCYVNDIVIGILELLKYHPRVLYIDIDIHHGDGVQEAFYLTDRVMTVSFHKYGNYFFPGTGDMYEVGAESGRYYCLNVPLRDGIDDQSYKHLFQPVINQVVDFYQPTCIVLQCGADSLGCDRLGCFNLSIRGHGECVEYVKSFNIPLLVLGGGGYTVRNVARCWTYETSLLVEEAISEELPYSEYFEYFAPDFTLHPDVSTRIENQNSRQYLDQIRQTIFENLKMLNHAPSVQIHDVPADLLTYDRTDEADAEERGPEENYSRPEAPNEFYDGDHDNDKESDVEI

[1] = molecular target: T1, Protein deacetylase HDAC6 (Homo sapiens, UniProt Q9UBN7); assay: Inhibition of recombinant His6-tagged GST-fused human HDAC6 expressed in baculovirus infected insect High5 cells using Boc-Lys-(epsilon-acetyl)-AMC as substrate after 3 hrs
T1 sequence (Q9UBN7 whole entry): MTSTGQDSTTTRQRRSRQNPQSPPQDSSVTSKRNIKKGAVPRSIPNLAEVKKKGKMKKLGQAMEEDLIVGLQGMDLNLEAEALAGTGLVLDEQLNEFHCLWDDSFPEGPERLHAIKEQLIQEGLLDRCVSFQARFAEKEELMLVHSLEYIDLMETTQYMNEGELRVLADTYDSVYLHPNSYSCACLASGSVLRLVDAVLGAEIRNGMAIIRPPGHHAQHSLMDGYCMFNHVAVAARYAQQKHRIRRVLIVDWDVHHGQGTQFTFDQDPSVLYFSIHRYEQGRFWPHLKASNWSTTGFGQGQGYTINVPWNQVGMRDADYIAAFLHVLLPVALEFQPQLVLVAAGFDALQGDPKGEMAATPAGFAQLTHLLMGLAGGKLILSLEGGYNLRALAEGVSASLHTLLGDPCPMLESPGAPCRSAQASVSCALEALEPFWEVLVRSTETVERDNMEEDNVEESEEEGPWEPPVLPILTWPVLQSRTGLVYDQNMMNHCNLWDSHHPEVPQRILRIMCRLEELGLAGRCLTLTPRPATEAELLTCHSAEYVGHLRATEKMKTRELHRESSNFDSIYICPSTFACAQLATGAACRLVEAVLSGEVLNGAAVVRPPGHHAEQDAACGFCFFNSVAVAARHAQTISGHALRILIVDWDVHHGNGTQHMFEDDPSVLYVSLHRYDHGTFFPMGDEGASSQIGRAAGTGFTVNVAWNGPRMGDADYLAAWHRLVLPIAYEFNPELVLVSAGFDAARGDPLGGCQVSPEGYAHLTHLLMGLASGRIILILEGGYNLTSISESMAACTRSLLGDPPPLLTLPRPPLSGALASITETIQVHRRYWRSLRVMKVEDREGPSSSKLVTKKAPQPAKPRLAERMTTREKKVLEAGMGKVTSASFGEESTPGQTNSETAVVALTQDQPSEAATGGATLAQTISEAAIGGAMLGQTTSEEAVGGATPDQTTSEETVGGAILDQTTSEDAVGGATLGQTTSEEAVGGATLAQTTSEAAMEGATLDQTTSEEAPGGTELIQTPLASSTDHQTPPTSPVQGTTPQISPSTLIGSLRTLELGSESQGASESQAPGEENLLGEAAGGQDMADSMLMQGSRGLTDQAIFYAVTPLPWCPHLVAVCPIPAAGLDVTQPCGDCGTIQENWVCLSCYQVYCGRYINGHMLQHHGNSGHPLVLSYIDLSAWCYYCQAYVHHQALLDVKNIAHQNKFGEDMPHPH

RPMI-8226 = assay: Cytotoxicity against human RPMI8226 cells assessed as cell viability after 72 hrs by CCK8 assay; format: functional, cell-based; conditions: RPMI-8226, 72 h
hERG (KCNH2) [2] = molecular target: T2, hERG (KCNH2) (Homo sapiens, UniProt Q12809); assay: Inhibition of human ERG overexpressed in CHO cells at 3 uM by Qpatch method relative to control; format: cell-based; conditions: CHO cells overexpressing human ERG
T2 sequence (Q12809 whole entry): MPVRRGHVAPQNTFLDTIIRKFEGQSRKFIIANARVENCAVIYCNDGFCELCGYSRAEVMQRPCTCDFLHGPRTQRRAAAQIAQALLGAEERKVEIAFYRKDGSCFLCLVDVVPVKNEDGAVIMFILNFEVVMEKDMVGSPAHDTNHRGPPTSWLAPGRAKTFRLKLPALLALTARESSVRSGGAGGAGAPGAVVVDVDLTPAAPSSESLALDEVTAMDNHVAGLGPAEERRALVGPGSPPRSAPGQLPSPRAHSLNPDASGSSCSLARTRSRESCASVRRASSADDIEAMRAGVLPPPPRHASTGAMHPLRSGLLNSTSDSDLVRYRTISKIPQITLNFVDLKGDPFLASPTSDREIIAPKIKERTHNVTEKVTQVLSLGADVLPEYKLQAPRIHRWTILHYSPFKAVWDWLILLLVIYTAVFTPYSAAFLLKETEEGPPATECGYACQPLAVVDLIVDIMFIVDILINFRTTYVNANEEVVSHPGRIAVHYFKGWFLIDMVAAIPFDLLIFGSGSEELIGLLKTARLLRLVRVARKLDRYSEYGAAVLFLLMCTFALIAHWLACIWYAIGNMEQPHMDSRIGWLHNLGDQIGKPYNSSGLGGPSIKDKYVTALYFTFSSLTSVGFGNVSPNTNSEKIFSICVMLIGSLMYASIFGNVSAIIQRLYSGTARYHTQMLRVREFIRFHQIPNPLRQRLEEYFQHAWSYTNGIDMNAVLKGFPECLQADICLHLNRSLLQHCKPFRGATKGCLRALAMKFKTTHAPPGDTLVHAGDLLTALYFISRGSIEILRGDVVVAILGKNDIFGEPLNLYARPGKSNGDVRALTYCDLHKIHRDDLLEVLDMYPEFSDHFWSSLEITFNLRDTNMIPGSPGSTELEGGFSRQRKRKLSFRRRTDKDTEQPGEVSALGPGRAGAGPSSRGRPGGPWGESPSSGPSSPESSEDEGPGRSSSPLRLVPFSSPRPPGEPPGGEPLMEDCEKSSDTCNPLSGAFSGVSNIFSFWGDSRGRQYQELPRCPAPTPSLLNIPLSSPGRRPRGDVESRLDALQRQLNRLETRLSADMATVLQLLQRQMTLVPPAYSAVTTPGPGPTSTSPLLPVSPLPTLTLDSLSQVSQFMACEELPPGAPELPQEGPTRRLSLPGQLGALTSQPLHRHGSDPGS

HCT-116 = assay: Cytotoxicity against human HCT116 cells assessed as cell viability after 72 hrs by CCK8 assay; format: functional, cell-based; conditions: HCT-116, 72 h
HepG2 = assay: Cytotoxicity against human HepG2 cells assessed as cell viability after 72 hrs by CCK8 assay; format: functional, cell-based; conditions: HepG2, 72 h
hERG (KCNH2) [3] = molecular target: T2, hERG (KCNH2); assay: Inhibition of human ERG overexpressed in CHO cells at 40 uM by Qpatch method relative to control; format: cell-based; conditions: CHO cells overexpressing human ERG
[4] = molecular target: Voltage-gated inwardly rectifying potassium channel KCNH2 (Homo sapiens, UniProt Q12809); assay: Inhibition of human ERG overexpressed in CHO cells by Qpatch method; format: cell-based
Voltage-gated inwardly rectifying potassium channel KCNH2, sequence (Q12809 whole entry): as above

[5] = molecular target: T3, Histone deacetylase (Homo sapiens) (UniProt Q13547+O15379+Q9UBN7+Q92769+Q9UQL6+Q8WUI4+Q9BY41+Q96DB2+P56524+Q9UKV0+Q969S8); assay: Inhibition of HDAC in human RPMI8226 cells assessed as upregulation of acetylated alpha-tubulin level after 24 hrs by Western blot analysis; format: cell-based; conditions: RPMI-8226
[6] = molecular target: T3, Histone deacetylase (Homo sapiens); assay: Inhibition of HDAC in human RPMI8226 cells assessed as upregulation of acetylated histone H3 level after 24 hrs by Western blot analysis; format: cell-based; conditions: RPMI-8226

Histone deacetylase 1, sequence (Q13547 whole entry, the tested form may be a part): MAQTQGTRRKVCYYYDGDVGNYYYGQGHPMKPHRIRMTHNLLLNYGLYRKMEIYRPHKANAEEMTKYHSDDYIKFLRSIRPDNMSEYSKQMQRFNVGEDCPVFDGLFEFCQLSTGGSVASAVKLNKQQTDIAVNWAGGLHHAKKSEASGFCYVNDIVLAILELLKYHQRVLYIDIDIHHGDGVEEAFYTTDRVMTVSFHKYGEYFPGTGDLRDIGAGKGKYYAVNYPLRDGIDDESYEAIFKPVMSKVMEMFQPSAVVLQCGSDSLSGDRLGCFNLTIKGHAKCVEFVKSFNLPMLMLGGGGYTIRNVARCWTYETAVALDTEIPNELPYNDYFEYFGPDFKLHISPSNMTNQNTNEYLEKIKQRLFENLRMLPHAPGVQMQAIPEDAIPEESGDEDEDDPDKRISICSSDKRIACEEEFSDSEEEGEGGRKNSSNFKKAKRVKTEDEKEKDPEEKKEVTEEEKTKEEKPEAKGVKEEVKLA

SMILES | IC50 (Histone deacetylase 1) [nM] | IC50 (Histone deacetylase 3) [nM] | IC50 [1] [nM] | IC50 (RPMI-8226) [nM] | inhibition at 3 µM (hERG (KCNH2) [2]) [%] | IC50 (HCT-116) [nM] | IC50 (HepG2) [nM] | inhibition at 40 µM (hERG (KCNH2) [3]) [%] | IC50 [4] [nM] | inhibition [5] | inhibition [6]
CC(C)CCn1ccc2ccc(NC(=O)CCCCCCC(=O)NO)cc2c1=O | 66 | 69.2 | 54.2 | 1800 |  |  |  |  |  |  | 
COc1cc(N)c(Cl)cc1C(=O)NC1CCN(CCCOc2ccc(F)cc2)CC1OC (stereo not drawn) [CISAPRIDE] |  |  |  |  | 98.7 |  |  |  |  |  | 
O=C(CCCCCCC(=O)Nc1ccc2ccnc(Nc3ccccc3F)c2c1)NO | 18 | 18.9 | 11 | 940 |  |  |  |  |  |  | 
Cc1ccc(Nc2nccc3ccc(NC(=O)CCCCCCC(=O)NO)cc23)c(Br)c1 | 15.4 | 17.6 | 6.26 | 470 |  | 260 | 8450 |  |  |  | 
O=C(CCCCCCC(=O)Nc1ccc2ccnc(N3CCOCC3)c2c1)NO | 45.9 | 40.8 | 29.5 | 1330 |  | 280 | 14000 |  |  |  | 
Cc1ccc(Nc2nccc3ccc(NCc4ccc(/C=C/C(=O)NO)cc4)cc23)c(Cl)c1 | 571 | 475 | 286 | 2710 |  |  |  |  |  |  | 
Cc1ccc(Nc2nccc3ccc(NC(=O)CCCCCCC(=O)NO)cc23)c(F)c1 | 35.4 | 39.7 | 40.9 | 2040 |  |  |  |  |  |  | 
COCCN(CCOC)c1nccc2ccc(NC(=O)CCCCCCC(=O)NO)cc12 | 263 | 192 | 148 | 7710 |  |  |  |  |  |  | 
COCCCNc1nccc2ccc(NC(=O)CCCCCCC(=O)NO)cc12 | 27.9 | 14 | 13.6 | 2710 |  |  |  |  |  |  | 
CC(C)N1CCN(c2nccc3ccc(NC(=O)CCCCCCC(=O)NO)cc23)CC1 | 41.6 | 36 | 25 | 1350 |  |  |  |  |  |  | 
CCCCn1ccc2ccc(NC(=O)CCCCCCC(=O)NO)cc2c1=O | 65.8 | 92 | 32.1 | 1880 |  | 1720 | 18500 |  |  |  | 
O=C(COc1ccc(C(=O)NO)cc1)Nc1ccc2ccnc(Nc3ccc4ccccc4c3)c2c1 | 272 | 276 | 545 | 7300 |  |  |  |  |  |  | 
CCN(CC)CCn1ccc2ccc(NC(=O)CCCCCCC(=O)NO)cc2c1=O | 69 | 74.4 | 38.7 | 2160 |  |  |  |  |  |  | 
O=C(CCCCCCC(=O)Nc1ccc2ccnc(Nc3ccc4ccccc4c3)c2c1)NO | 5.75 | 5.42 | 5.15 | 740 |  |  |  | 17.5 | > 40000 |  | 
COc1ccc(Cn2ccc3ccc(NC(=O)CCCCCCC(=O)NO)cc3c2=O)c(OC)c1 | 98.1 | 108 | 100 | 2640 |  |  |  |  |  |  | 
Cc1ccc(Nc2nccc3ccc(NCc4ccc(/C=C/C(=O)NO)cc4)cc23)c(Br)c1 | 439 | 633 | 304 | 5220 |  |  |  |  |  |  | 
O=C(CCCCCCC(=O)Nc1ccc2ccnc(Nc3ccc(Br)cc3F)c2c1)NO | 15.5 | 16.7 | 6.83 | 460 |  | 190 | 5870 | 43.7 | > 40000 | Dose-dependent effect | Dose-dependent effect
O=C(CCCCCCC(=O)Nc1ccc2ccnc(Nc3cccc(Cl)c3F)c2c1)NO | 17.5 | 21.6 | 7.96 | 720 |  |  |  |  |  | Dose-dependent effect | Dose-dependent effect
Cc1ccc(Nc2nccc3ccc(NCc4ccc(C(=O)NO)cc4)cc23)cc1 | 323 | 264 | 352 | > 20000 |  |  |  |  |  |  | 
Cc1ccc(Nc2nccc3ccc(NC(=O)CCCCCCC(=O)NO)cc23)cc1 | 4.17 | 4 | 3.77 | 770 |  |  |  |  |  |  | 
Cc1ccc(Nc2nccc3ccc(NCc4ccc(/C=C/C(=O)NO)cc4)cc23)cc1 | 205 | 176 | 58.9 | 2040 |  |  |  |  |  |  | 
Cc1ccc(Nc2nccc3ccc(NC(=O)CCCCCCC(=O)NO)cc23)c(Cl)c1 | 19.5 | 21.2 | 29.9 | 520 |  | 170 | 10000 |  |  |  | 
